Experimental data taken from US20050203117A1, “Treating allergic and inflammatory conditions” (priority 2002, published 2005).

Assay: in vivo studies of allergic bronchospasm and cough

For Clc1ccc2c(c1)CCc1cccnc1C2=C1CCNCC1 [desloratadine], the “effect on allergic bronchospasm and cough” value was “inhibitory effect”.
